The values below come from ChEMBL document CHEMBL1157890, “Bioactivity-guided isolation of mosquitocidal constituents from the rhizomes of Plumbago capensis Thunb” (2010).

For orientation: LC50 means the concentration that kills 50% of the test population.

The subject of assay [1] is Aedes aegypti. The experiment in a line: Larvicidal activity against Aedes aegypti fourth instar larvae after 24 hrs. The format is functional. The note with it: for LC50: Aedes aegypti, 24 h.
Assay [2] relates to Aedes aegypti. The assay is described as follows: Larvicidal activity against Aedes aegypti fourth instar larvae at 20 ug/ml after 24 hrs. The format is functional.
Assay [3] has as its system Aedes aegypti. The assay is described as follows: Larvicidal activity against Aedes aegypti fourth instar larvae at 60 ug/ml after 24 hrs. The format is functional, organism-based.
The subject of assay [4] is Aedes aegypti. The experiment in a line: Larvicidal activity against Aedes aegypti fourth instar larvae at 6.5 ug/ml after 24 hrs. The class given is functional.

≈ marks a conversion by molar mass, not a printed value. Calls of active or inactive are those of the source. No cut-off for these calls is given here.

In assay [1], `C[C@H]1CC(=O)c2c(O)cccc2[C@H]1O` [ISOSHINANOLONE] displayed an LC90 of 4.1 µg/mL (≈ 21.3 µM) and a median lethal concentration (LC50) of 1.26 µg/mL (≈ 6.56 µM).

With `COC1=C(C)C(=O)c2cccc(O)c2C1=O`, in assay [1], the LC90 was 55.72 µg/mL (≈ 255 µM) and the LC50 stood at 31.5 µg/mL (≈ 144 µM).

Take `CC1=CC(=O)c2c(ccc(O)c2O)C1=O`: in assay [1], the LC90 amounted to 19.28 µg/mL (≈ 94.4 µM) and the LC50 amounted to 13.6 µg/mL (≈ 66.8 µM). The Activity in assay [2] was determined as 100%.

In the case of `C[C@H]1C[C@H](O)c2cccc(O)c2C1=O`, the outcome in assay [3] was inactive.

In assay [1], `C=C(C)[C@H]1Cc2c(ccc3c2O[C@@H]2COc4cc(OC)c(OC)cc4[C@@H]2C3=O)O1` [ROTENONE] came in with an LC90 of 25 µg/mL (≈ 63.4 µM) and an LC50 of 6.2 µg/mL (≈ 15.7 µM).

Regarding `CC1=CC(=O)c2c(O)cccc2C1=O` [PLUMBAGIN], in assay [1], the LC90 was found to be 6.56 µg/mL (≈ 34.9 µM) and the LC50 amounted to 5.43 µg/mL (≈ 28.9 µM). In assay [4], this compound displayed an Activity of 100%.

Turning to `CC1=CC(=O)c2c(ccc(-c3cc(O)c4c(c3C)C(=O)CCC4=O)c2O)C1=O`, in assay [1], the LC90 was 42.72 µg/mL (≈ 114 µM) and the LC50 is 31.2 µg/mL (≈ 82.9 µM).

Turning to `CC1=CC(=O)c2c(ccc(C3=C(C)C(=O)c4cccc(O)c4C3=O)c2O)C1=O`, in assay [3], the result was inactive.

As to `CC1=CC(=O)c2c(O)ccc(-c3ccc(O)c4c3C(=O)C(C)=CC4=O)c2C1=O` [MARITINONE], in assay [1], the LC90 came to 53.87 µg/mL (≈ 144 µM) and the LC50 stood at 40.7 µg/mL (≈ 109 µM).
